Results from ChEMBL document CHEMBL1201862, “PubChem BioAssay data set” (2004).
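96-well plates; 48 h exposure; 5 concentrations. Endpoints by linear interpolation between flanking doses. Not reached: highest tested concentration assigned. GI50: concentration for 50% inhibition of growth.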 The source made the active and inactive calls. Rule as the data show it: active = GI50 up to about 1.1 µM and inactive = higher.

Experiments:
Test in all cases: NCI anticancer screen, dose series, 48 h
[1] = tested on: 786-0
[2] = tested on: A549
[3] = tested on: ACHN
[4] = tested on: BT-549
[5] = tested on: CCRF-CEM
[6] = tested on: COLO 205
[7] = tested on: DU-145
[8] = tested on: EKVX
[9] = tested on: HCC 2998
[10] = tested on: HCT-116
[11] = tested on: HCT-15
[12] = tested on: HL-60
[13] = tested on: HOP-62
[14] = tested on: HOP-92
[15] = tested on: HT-29
[16] = tested on: Hs-578T
[17] = tested on: IGROV-1
[18] = tested on: K562
[19] = tested on: KM12
[20] = tested on: LOX IMVI
[21] = tested on: MDA-MB-231
[22] = tested on: MDA-MB-435
[23] = tested on: MDA-N
[24] = tested on: MOLT-4
[25] = tested on: Malme-3M
[26] = tested on: NCI-H226
[27] = tested on: NCI-H23
[28] = tested on: NCI-H460
[29] = tested on: NCI-H522
[30] = tested on: NCI/ADR-RES
[31] = tested on: OVCAR-3
[32] = tested on: OVCAR-4
[33] = tested on: OVCAR-5
[34] = tested on: OVCAR-8
[35] = tested on: PC-3
[36] = tested on: RPMI-8226
[37] = tested on: RXF 393
[38] = tested on: SF-268
[39] = tested on: SF-295
[40] = tested on: SK-MEL-28
[41] = tested on: SK-MEL-2
[42] = tested on: SK-MEL-5
[43] = tested on: SK-OV-3
[44] = tested on: SN12C
[45] = tested on: SNB-19
[46] = tested on: SNB-75
[47] = tested on: SR
[48] = tested on: SW-620
[49] = tested on: TK-10
[50] = tested on: U-251
[51] = tested on: UACC-62
[52] = tested on: UO-31
[53] = tested on: CAKI-1
[54] = tested on: M14
[55] = tested on: MCF7
[56] = tested on: T47D
[57] = tested on: UACC-257
[58] = tested on: A498
[59] = tested on: SF-539

COc1ccc(N2C(=O)c3cc(C)cnc3S2(=O)=O)cc1
GI50 [1]: > 100 µM (inactive)
GI50 [2]: > 100 µM (inactive)
GI50 [3]: > 100 µM (inactive)
GI50 [4]: > 100 µM (inactive)
GI50 [5]: > 100 µM (inactive)
GI50 [6]: > 100 µM (inactive)
GI50 [7]: > 100 µM (inactive)
GI50 [8]: > 100 µM (inactive)
GI50 [9]: > 100 µM (inactive)
GI50 [10]: > 100 µM (inactive)
GI50 [11]: > 100 µM
GI50 [12]: > 100 µM (inactive)
GI50 [13]: > 100 µM (inactive)
GI50 [14]: > 100 µM (inactive)
GI50 [15]: > 100 µM (inactive)
GI50 [16]: > 100 µM (inactive)
GI50 [17]: > 100 µM (inactive)
GI50 [18]: > 100 µM (inactive)
GI50 [19]: > 100 µM (inactive)
GI50 [20]: > 100 µM (inactive)
GI50 [21]: > 100 µM (inactive)
GI50 [22]: > 100 µM (inactive)
GI50 [23]: > 100 µM (inactive)
GI50 [24]: > 100 µM (inactive)
GI50 [25]: > 100 µM (inactive)
GI50 [26]: > 100 µM (inactive)
GI50 [27]: > 100 µM (inactive)
GI50 [28]: > 100 µM (inactive)
GI50 [29]: > 100 µM (inactive)
GI50 [30]: > 100 µM (inactive)
GI50 [31]: > 100 µM (inactive)
GI50 [32]: > 100 µM (inactive)
GI50 [33]: > 100 µM (inactive)
GI50 [34]: > 100 µM (inactive)
GI50 [35]: > 100 µM (inactive)
GI50 [36]: > 100 µM (inactive)
GI50 [37]: > 100 µM (inactive)
GI50 [38]: > 100 µM (inactive)
GI50 [39]: > 100 µM (inactive)
GI50 [40]: > 100 µM (inactive)
GI50 [41]: > 100 µM (inactive)
GI50 [42]: > 100 µM (inactive)
GI50 [43]: > 100 µM (inactive)
GI50 [44]: > 100 µM (inactive)
GI50 [45]: > 100 µM (inactive)
GI50 [46]: > 100 µM (inactive)
GI50 [47]: > 100 µM (inactive)
GI50 [48]: > 100 µM (inactive)
GI50 [49]: > 100 µM (inactive)
GI50 [50]: > 100 µM (inactive)
GI50 [51]: > 100 µM (inactive)
GI50 [52]: > 100 µM (inactive)

CNC(=O)c1nnn(Cc2ccccc2)c1S
GI50 [1]: > 100 µM (inactive)
GI50 [2]: > 100 µM (inactive)
GI50 [3]: > 100 µM (inactive)
GI50 [4]: > 100 µM (inactive)
GI50 [53]: > 100 µM (inactive)
GI50 [5]: > 100 µM (inactive)
GI50 [6]: > 100 µM (inactive)
GI50 [7]: > 100 µM (inactive)
GI50 [8]: > 100 µM (inactive)
GI50 [9]: > 100 µM (inactive)
GI50 [10]: > 100 µM (inactive)
GI50 [11]: > 100 µM
GI50 [13]: > 100 µM (inactive)
GI50 [15]: > 100 µM (inactive)
GI50 [17]: > 100 µM (inactive)
GI50 [18]: > 100 µM (inactive)
GI50 [19]: > 100 µM (inactive)
GI50 [54]: > 100 µM (inactive)
GI50 [55]: > 100 µM (inactive)
GI50 [21]: > 100 µM (inactive)
GI50 [22]: > 100 µM (inactive)
GI50 [23]: > 100 µM (inactive)
GI50 [24]: > 100 µM (inactive)
GI50 [26]: > 100 µM (inactive)
GI50 [27]: > 100 µM (inactive)
GI50 [28]: > 100 µM (inactive)
GI50 [30]: > 100 µM (inactive)
GI50 [31]: > 100 µM (inactive)
GI50 [32]: > 100 µM (inactive)
GI50 [33]: > 100 µM (inactive)
GI50 [34]: > 100 µM (inactive)
GI50 [35]: > 100 µM (inactive)
GI50 [36]: > 100 µM (inactive)
GI50 [37]: > 100 µM (inactive)
GI50 [39]: > 100 µM (inactive)
GI50 [40]: > 100 µM (inactive)
GI50 [41]: > 100 µM (inactive)
GI50 [42]: > 100 µM (inactive)
GI50 [43]: > 100 µM (inactive)
GI50 [44]: > 100 µM (inactive)
GI50 [45]: > 100 µM (inactive)
GI50 [46]: > 100 µM (inactive)
GI50 [48]: > 100 µM (inactive)
GI50 [56]: > 100 µM (inactive)
GI50 [49]: > 100 µM (inactive)
GI50 [50]: > 100 µM (inactive)
GI50 [57]: > 100 µM (inactive)
GI50 [51]: > 100 µM (inactive)
GI50 [52]: > 100 µM (inactive)

COc1ccc(C23OCC(Cc4cc(OC)c(OC)cc42)C3CO)cc1OC (stereo not given)
GI50 [1]: > 100 µM (inactive)
GI50 [58]: > 100 µM (inactive)
GI50 [2]: > 100 µM (inactive)
GI50 [3]: > 100 µM (inactive)
GI50 [4]: > 100 µM (inactive)
GI50 [53]: > 100 µM (inactive)
GI50 [6]: > 100 µM (inactive)
GI50 [7]: > 100 µM (inactive)
GI50 [8]: > 100 µM (inactive)
GI50 [9]: > 100 µM (inactive)
GI50 [10]: > 100 µM (inactive)
GI50 [11]: > 100 µM
GI50 [12]: > 100 µM (inactive)
GI50 [13]: > 100 µM (inactive)
GI50 [18]: > 100 µM (inactive)
GI50 [19]: > 100 µM (inactive)
GI50 [20]: > 100 µM (inactive)
GI50 [54]: > 100 µM (inactive)
GI50 [55]: > 100 µM (inactive)
GI50 [21]: > 100 µM (inactive)
GI50 [22]: > 100 µM (inactive)
GI50 [24]: > 100 µM (inactive)
GI50 [25]: > 100 µM (inactive)
GI50 [26]: > 100 µM (inactive)
GI50 [27]: > 100 µM (inactive)
GI50 [28]: > 100 µM (inactive)
GI50 [29]: > 100 µM (inactive)
GI50 [30]: > 100 µM (inactive)
GI50 [31]: > 100 µM (inactive)
GI50 [32]: > 100 µM (inactive)
GI50 [33]: > 100 µM (inactive)
GI50 [35]: > 100 µM (inactive)
GI50 [36]: > 100 µM (inactive)
GI50 [37]: > 100 µM (inactive)
GI50 [39]: > 100 µM (inactive)
GI50 [59]: > 100 µM (inactive)
GI50 [40]: > 100 µM (inactive)
GI50 [41]: > 100 µM (inactive)
GI50 [42]: > 100 µM (inactive)
GI50 [43]: > 100 µM (inactive)
GI50 [45]: > 100 µM (inactive)
GI50 [46]: > 100 µM (inactive)
GI50 [47]: 29.8 µM (inactive)
GI50 [48]: > 100 µM (inactive)
GI50 [56]: > 100 µM (inactive)
GI50 [49]: > 100 µM (inactive)
GI50 [50]: > 100 µM (inactive)
GI50 [51]: > 100 µM (inactive)
GI50 [52]: > 100 µM (inactive)
